For six molecules, carcinogen call and TD50 results are on record in PubChem BioAssay AID1745844 (Carcinogenic Potency Database (CPDB), 2022).

Activity calls are given as the source filed them. How the calls were made is not given here.

This series concerns rodent lifetime carcinogenesis bioassay, tumor incidence TD50. Kind of series: carcinogenic potency in animals, long-term in vivo studies, CPDB compilation (AID 1745844).

In the case of `CC(=O)Nc1ccc(S(=O)(=O)O)c2cc(S(=O)(=O)O)c(N=Nc3ccc(N=Nc4ccc(S(=O)(=O)O)cc4)c4ccc(S(=O)(=O)O)cc34)c(O)c12`, the carcinogen call by setting is: (mouse, strain CFW, females, in feed, site: liver, lesion: one or several types, types not named, dosed 80 weeks, study length 80 weeks) “negative (inactive)”; (mouse, strain CFW, females, in feed, site: lung, lesion: adenoma, dosed 80 weeks, study length 80 weeks) “negative (inactive)”; (mouse, strain CFW, males, in feed, site: liver, lesion: one or several types, types not named, dosed 80 weeks, study length 80 weeks) “negative (inactive)”; (rat, strain CFE, females, in feed, site: liver, lesion: one or several types, types not named, dosed 104 weeks, study length 104 weeks) “negative (inactive)”; (rat, strain CFE, males, in feed, site: liver, lesion: one or several types, types not named, dosed 104 weeks, study length 104 weeks) “negative (inactive)”. Moreover, the TD50 – broadly, the dose at which the toxic effect under study appears in half of the subjects – (mouse, strain CFW, males, in feed, site: lung, lesion: adenoma, dosed 80 weeks, study length 80 weeks) is 3660 mg/kg/day (inactive).
`NC(=O)C(=Cc1ccc([N+](=O)[O-])o1)c1ccco1`: the TD50 by setting is: (hamster, strain Syrian Golden, females, in feed, site: esophagus, lesion: papilloma, dosed 94 weeks, study length 94 weeks) 2340 mg/kg/day; (hamster, strain Syrian Golden, females, in feed, site: forestomach, lesion: several types, types named in the paper, dosed 94 weeks, study length 94 weeks) 59.1 mg/kg/day; (hamster, strain Syrian Golden, females, in feed, site: forestomach, lesion: squamous-cell carcinoma, dosed 94 weeks, study length 94 weeks) 2340 mg/kg/day; (hamster, strain Syrian Golden, males, in feed, site: esophagus, lesion: several types, types named in the paper, dosed 94 weeks, study length 94 weeks) 328 mg/kg/day; (hamster, strain Syrian Golden, males, in feed, site: esophagus, lesion: squamous-cell carcinoma, dosed 94 weeks, study length 94 weeks) 2180 mg/kg/day; (hamster, strain Syrian Golden, males, in feed, site: forestomach, lesion: several types, types named in the paper, dosed 94 weeks, study length 94 weeks) 30.5 mg/kg/day. The TD50 reads like this: (hamster, strain Syrian Golden, males, in feed, site: forestomach, lesion: squamous-cell carcinoma, dosed 94 weeks, study length 94 weeks) 164 mg/kg/day; (mouse, strain CDF1, females, in feed, site: forestomach, lesion: papilloma, dosed 78 weeks, study length 104 weeks) 714 mg/kg/day; (mouse, strain CDF1, females, in feed, site: forestomach, lesion: squamous-cell carcinoma, dosed 78 weeks, study length 104 weeks) 2540 mg/kg/day; (mouse, strain CDF1, females, in feed, site: lung, lesion: one or several types, types not named, dosed 78 weeks, study length 104 weeks) 16400 mg/kg/day; (mouse, strain CDF1, males, in feed, site: forestomach, lesion: papilloma, dosed 78 weeks, study length 104 weeks) 753 mg/kg/day; (mouse, strain CDF1, males, in feed, site: forestomach, lesion: squamous-cell carcinoma, dosed 78 weeks, study length 104 weeks) 928 mg/kg/day. For the same molecule, the TD50 by setting is: (mouse, strain CDF1, males, in feed, site: lung, lesion: one or several types, types not named, dosed 78 weeks, study length 104 weeks) 9270 mg/kg/day; (mouse, strain DDY, males, in feed, site: any site (literature study), lesion: several types, types named in the paper, dosed 44 weeks, study length 80 weeks) 60.8 mg/kg/day; (mouse, strain DDY, males, in feed, site: forestomach, lesion: several types, types named in the paper, dosed 44 weeks, study length 80 weeks) 60.8 mg/kg/day; (mouse, strain DDY, males, in feed, site: forestomach, lesion: squamous-cell carcinoma, dosed 44 weeks, study length 80 weeks) 72.9 mg/kg/day; (mouse, strain DDY, males, in feed, site: lung, lesion: adenoma, dosed 44 weeks, study length 80 weeks) 299 mg/kg/day; (mouse, strain ICR/Jcl, females, in feed, site: all sites, lesion: leukemia, dosed 62 weeks, study length 62 weeks) 1800 mg/kg/day. Besides, the TD50 was 95 mg/kg/day (mouse, strain ICR/Jcl, females, in feed, site: forestomach, lesion: several types, types named in the paper, dosed 62 weeks, study length 62 weeks); 225 mg/kg/day (mouse, strain ICR/Jcl, females, in feed, site: forestomach, lesion: squamous-cell carcinoma, dosed 62 weeks, study length 62 weeks); 7070 mg/kg/day (inactive) (mouse, strain ICR/Jcl, females, in feed, site: liver, lesion: hepatocellular tumor, dosed 104 weeks, study length 104 weeks); 90.3 mg/kg/day (mouse, strain ICR/Jcl, males, in feed, site: forestomach, lesion: several types, types named in the paper, dosed 62 weeks, study length 62 weeks); 208 mg/kg/day (mouse, strain ICR/Jcl, males, in feed, site: forestomach, lesion: squamous-cell carcinoma, dosed 62 weeks, study length 62 weeks); 26.4 mg/kg/day (rat, strain Sprague-Dawley, females, in feed, site: mammary gland, lesion: adenocarcinoma, dosed 46 weeks, study length 66 weeks). For the same molecule, the TD50 runs as follows: (rat, strain Sprague-Dawley, females, in feed, site: mammary gland, lesion: several types, types named in the paper, dosed 46 weeks, study length 66 weeks) 11.4 mg/kg/day; (rat, strain Wistar, females, in feed, site: forestomach, lesion: papilloma, dosed 78 weeks, study length 104 weeks) 424 mg/kg/day; (rat, strain Wistar, females, in feed, site: liver, lesion: hemangioendothelial sarcoma, dosed 78 weeks, study length 104 weeks) 2000 mg/kg/day; (rat, strain Wistar, females, in feed, site: mammary gland, lesion: several types, types named in the paper, dosed 78 weeks, study length 104 weeks) 74.7 mg/kg/day; (rat, strain Wistar, males, in feed, site: forestomach, lesion: papilloma, dosed 78 weeks, study length 104 weeks) 409 mg/kg/day; (rat, strain Wistar, males, in feed, site: liver, lesion: hemangioendothelial sarcoma, dosed 78 weeks, study length 104 weeks) 1600 mg/kg/day. Besides, the TD50 (rat, strain Wistar, males, in feed, site: mammary gland, lesion: several types, types named in the paper, dosed 78 weeks, study length 104 weeks) was 1200 mg/kg/day. Further, the carcinogen call (mouse, strain ICR/Jcl, males, in feed, site: liver, lesion: hepatocellular tumor, dosed 104 weeks, study length 104 weeks) was “negative (inactive)”.
Take `Nc1nc(=S)c2ncn([C@H]3C[C@H](O)[C@@H](CO)O3)c2[nH]1`: the TD50 was 4.48 mg/kg/day (mouse, strain B6C3F1, females, i.p., site: any site (literature study), lesion: several types, types named in the paper, dosed 43 weeks, study length 77 weeks); 6.87 mg/kg/day (mouse, strain B6C3F1, females, i.p., site: lung, lesion: alveolar/bronchiolar adenoma + alveolar/bronchiolar carcinoma, dosed 43 weeks, study length 77 weeks); 4.11 mg/kg/day (rat, strain Sprague-Dawley, females, i.p., site: any site (literature study), lesion: several types, types named in the paper, dosed 52 weeks, study length 78 weeks); 2.1 mg/kg/day (rat, strain Sprague-Dawley, females, i.p., site: ear canal, lesion: carcinoma, NOS + squamous-cell carcinoma, dosed 52 weeks, study length 78 weeks); 2.31 mg/kg/day (rat, strain Sprague-Dawley, females, i.p., site: ear canal, lesion: squamous-cell carcinoma, dosed 52 weeks, study length 78 weeks); 5.75 mg/kg/day (rat, strain Sprague-Dawley, males, i.p., site: all sites, lesion: lymphoma, dosed 52 weeks, study length 78 weeks). Further, for the setting “rat, strain Sprague-Dawley, males, i.p., site: ear canal, lesion: carcinoma, NOS + squamous-cell carcinoma, dosed 52 weeks, study length 78 weeks”, the TD50 is 4.38 mg/kg/day.
Turning to `Cc1cc(O)c(C(C)(C)C)cc1Sc1cc(C(C)(C)C)c(O)cc1C`, the TD50 runs as follows: (mouse, strain B6C3F1, females, in feed, site: any site (literature study), lesion: several types, types named in the paper, dosed 104 weeks, study length 104 weeks) 484 mg/kg/day (inactive); (mouse, strain B6C3F1, females, in feed, site: lung, lesion: alveolar/bronchiolar adenoma + alveolar/bronchiolar carcinoma, dosed 104 weeks, study length 104 weeks) 2020 mg/kg/day; (rat, strain Fischer 344, females, in feed, site: any site (literature study), lesion: several types, types named in the paper, dosed 104 weeks, study length 104 weeks) 196 mg/kg/day; (rat, strain Fischer 344, females, in feed, site: liver, lesion: hepatocellular adenoma + hepatoblastoma + hepatocellular carcinoma, dosed 104 weeks, study length 104 weeks) 3990 mg/kg/day; (rat, strain Fischer 344, females, in feed, site: thyroid gland, lesion: c-cell adenoma + c-cell adenoma, bilateral, dosed 104 weeks, study length 104 weeks) 361 mg/kg/day; (rat, strain Fischer 344, females, in feed, site: thyroid gland, lesion: c-cell adenoma + c-cell carcinoma + c-cell adenoma, bilateral, dosed 104 weeks, study length 104 weeks) 325 mg/kg/day. The TD50 (rat, strain Fischer 344, females, in feed, site: uterus, lesion: endometrial stromal polyp + endometrial stromal sarcoma, dosed 104 weeks, study length 104 weeks) is 262 mg/kg/day (inactive); the TD50 (rat, strain Fischer 344, females, in feed, site: uterus, lesion: endometrial stromal polyp, dosed 104 weeks, study length 104 weeks) was found to be 286 mg/kg/day; the TD50 (rat, strain Fischer 344, males, in feed, site: any site (literature study), lesion: several types, types named in the paper, dosed 104 weeks, study length 104 weeks) is 449 mg/kg/day (inactive); the TD50 (rat, strain Fischer 344, males, in feed, site: liver, lesion: hepatocellular adenoma + hepatoblastoma + hepatocellular carcinoma, dosed 104 weeks, study length 104 weeks) turned out to be 324 mg/kg/day. The carcinogen call (mouse, strain B6C3F1, males, in feed, site: any site (literature study), lesion: several types, types named in the paper, dosed 104 weeks, study length 104 weeks) was “negative (inactive)”.
With `O=C(O)c1cc(O)c(O)c(O)c1`, the carcinogen call (rat, strain F344/DuCrj, males, in feed, site: forestomach, lesion: squamous-cell carcinoma, dosed 60 weeks, study length 60 weeks) was “negative (inactive)” and the carcinogen call (rat, strain F344/DuCrj, males, in feed, site: forestomach, lesion: squamous-cell papilloma, dosed 60 weeks, study length 60 weeks) was “negative (inactive)”.
Turning to `CCCN(CCC)N=O`, the TD50 runs as follows: (monkey, strain Rhesus [Macaca mulatta], both sexes, i.p., site: any site (literature study), lesion: malignant tumor, dosed 133 weeks, study length 133 weeks) 0.0121 mg/kg/day; (monkey, strain Rhesus [Macaca mulatta], both sexes, i.p., site: liver, lesion: hepatocellular carcinoma, dosed 133 weeks, study length 133 weeks) 0.0121 mg/kg/day; (rat, strain Fischer 344, females, by gavage, site: esophagus, lesion: several types, types named in the paper, dosed 30 weeks, study length 60 weeks) 0.505 mg/kg/day; (rat, strain Fischer 344, females, by gavage, site: liver, lesion: hepatocellular carcinoma, dosed 30 weeks, study length 60 weeks) 0.186 mg/kg/day; (rat, strain Fischer 344, females, by gavage, site: nasal cavity, lesion: carcinoma, dosed 30 weeks, study length 60 weeks) 0.186 mg/kg/day.
